Experimental data from US20230049952A1, “METHODS AND COMPOUNDS FOR RESTORING MUTANT P53 FUNCTION” (PMV Pharmaceuticals, Inc., priority 2020, published 2023).

Test system: p53 signaling pathway in MT373 tumors
Test: MT373 syngeneic sarcoma model: mouse p53 signaling pathway profiling panel
Format: in vivo

Q: Which results are given for `CCn1c(C#CCNc2ccccc2)cc2cc(CNC3CCN(C)CC3)ccc21` [Compound 1, 1-Anilino-3-{1-ethyl-5-[(1-methyl-4-piperidylamino)methyl]-1H-indol-2-yl}-2-propyne]?
A: Pcna fold increase or percent reduction vs vehicle control (150 mg/kg BIDx1, 24 h): 42.63 fold or %; Pmaip1 fold increase or percent reduction vs vehicle control (150 mg/kg BIDx1, 24 h): 1.45 fold or %; Ppm1d fold increase or percent reduction vs vehicle control (150 mg/kg BIDx1, 24 h): 1.49 fold or %; Prc1 fold increase or percent reduction vs vehicle control (150 mg/kg BIDx1, 24 h): 54.87 fold or %; Prkca fold increase or percent reduction vs vehicle control (150 mg/kg BIDx1, 24 h): 28.12 fold or %; Pten fold increase or percent reduction vs vehicle control (150 mg/kg BIDx1, 24 h): 1.08 fold or %; Pttg1 fold increase or percent reduction vs vehicle control (150 mg/kg BIDx1, 24 h): 1.11 fold or %; Rb1 fold increase or percent reduction vs vehicle control (150 mg/kg BIDx1, 24 h): 1.48 fold or %; Rela fold increase or percent reduction vs vehicle control (150 mg/kg BIDx1, 24 h): 14.73 fold or %; Rprm fold increase or percent reduction vs vehicle control (150 mg/kg BIDx1, 24 h): 2.12 fold or %; Serpinb5 fold increase or percent reduction vs vehicle control (150 mg/kg BIDx1, 24 h): 2.23 fold or %; Sesn2 fold increase or percent reduction vs vehicle control (150 mg/kg BIDx1, 24 h): 2.45 fold or %; Sfn fold increase or percent reduction vs vehicle control (150 mg/kg BIDx1, 24 h): 31.21 fold or %; Sirt1 fold increase or percent reduction vs vehicle control (150 mg/kg BIDx1, 24 h): 15.06 fold or %; Stat1 fold increase or percent reduction vs vehicle control (150 mg/kg BIDx1, 24 h): 1.51 fold or %; Tnf fold increase or percent reduction vs vehicle control (150 mg/kg BIDx1, 24 h): 1.23 fold or %; Traf1 fold increase or percent reduction vs vehicle control (150 mg/kg BIDx1, 24 h): 1.20 fold or %; Trp53bp2 fold increase or percent reduction vs vehicle control (150 mg/kg BIDx1, 24 h): 12.94 fold or %; Trp53 fold increase or percent reduction vs vehicle control (150 mg/kg BIDx1, 24 h): 27.25 fold or %; Apex1 fold increase or percent reduction vs vehicle control (150 mg/kg BIDx1, 48 h): 31.42 fold or %; Atm fold increase or percent reduction vs vehicle control (150 mg/kg BIDx1, 48 h): 26.33 fold or %; Atr fold increase or percent reduction vs vehicle control (150 mg/kg BIDx1, 48 h): 16.47 fold or %; Bag1 fold increase or percent reduction vs vehicle control (150 mg/kg BIDx1, 48 h): 42.01 fold or %; Bax fold increase or percent reduction vs vehicle control (150 mg/kg BIDx1, 48 h): 30.76 fold or %; Bbc3 fold increase or percent reduction vs vehicle control (150 mg/kg BIDx1, 48 h): 1.04 fold or %; Bcl2 fold increase or percent reduction vs vehicle control (150 mg/kg BIDx1, 48 h): 23.30 fold or %; Bid fold increase or percent reduction vs vehicle control (150 mg/kg BIDx1, 48 h): 1.01 fold or %; Birc5 fold increase or percent reduction vs vehicle control (150 mg/kg BIDx1, 48 h): 66.42 fold or %; Brca1 fold increase or percent reduction vs vehicle control (150 mg/kg BIDx1, 48 h): 60.55 fold or %; Brca2 fold increase or percent reduction vs vehicle control (150 mg/kg BIDx1, 48 h): 41.49 fold or %; Btg2 fold increase or percent reduction vs vehicle control (150 mg/kg BIDx1, 48 h): 1.05 fold or %; Casp2 fold increase or percent reduction vs vehicle control (150 mg/kg BIDx1, 48 h): 15.74 fold or %; Ccnb1 fold increase or percent reduction vs vehicle control (150 mg/kg BIDx1, 48 h): 73.80 fold or %; Ccne1 fold increase or percent reduction vs vehicle control (150 mg/kg BIDx1, 48 h): 38.25 fold or %; Ccng1 fold increase or percent reduction vs vehicle control (150 mg/kg BIDx1, 48 h): 1.45 fold or %; Ccnh fold increase or percent reduction vs vehicle control (150 mg/kg BIDx1, 48 h): 16.38 fold or %; Cdc25a fold increase or percent reduction vs vehicle control (150 mg/kg BIDx1, 48 h): 42.22 fold or %; Cdk1 fold increase or percent reduction vs vehicle control (150 mg/kg BIDx1, 48 h): 69.40 fold or %; Cdk4 fold increase or percent reduction vs vehicle control (150 mg/kg BIDx1, 48 h): 54.23 fold or %; Cdkn1a fold increase or percent reduction vs vehicle control (150 mg/kg BIDx1, 48 h): 1.38 fold or %; Cdkn2a fold increase or percent reduction vs vehicle control (150 mg/kg BIDx1, 48 h): 38.18 fold or %; Chek1 fold increase or percent reduction vs vehicle control (150 mg/kg BIDx1, 48 h): 63.16 fold or %; Cradd fold increase or percent reduction vs vehicle control (150 mg/kg BIDx1, 48 h): 24.24 fold or %; Cul9 fold increase or percent reduction vs vehicle control (150 mg/kg BIDx1, 48 h): 1.03 fold or %; Dapk1 fold increase or percent reduction vs vehicle control (150 mg/kg BIDx1, 48 h): 1.17 fold or %; Dnmt1 fold increase or percent reduction vs vehicle control (150 mg/kg BIDx1, 48 h): 34.04 fold or %; E2f1 fold increase or percent reduction vs vehicle control (150 mg/kg BIDx1, 48 h): 30.48 fold or %; E2f3 fold increase or percent reduction vs vehicle control (150 mg/kg BIDx1, 48 h): 33.97 fold or %; Egfr fold increase or percent reduction vs vehicle control (150 mg/kg BIDx1, 48 h): 41.85 fold or %; Egr1 fold increase or percent reduction vs vehicle control (150 mg/kg BIDx1, 48 h): 46.38 fold or %; Ep300 fold increase or percent reduction vs vehicle control (150 mg/kg BIDx1, 48 h): 1.10 fold or %; Ercc1 fold increase or percent reduction vs vehicle control (150 mg/kg BIDx1, 48 h): 44.10 fold or %; Esr1 fold increase or percent reduction vs vehicle control (150 mg/kg BIDx1, 48 h): 1.67 fold or %; Fadd fold increase or percent reduction vs vehicle control (150 mg/kg BIDx1, 48 h): 9.11 fold or %; Fas fold increase or percent reduction vs vehicle control (150 mg/kg BIDx1, 48 h): 10.02 fold or %; Fasl fold increase or percent reduction vs vehicle control (150 mg/kg BIDx1, 48 h): 1.18 fold or %; Foxo3 fold increase or percent reduction vs vehicle control (150 mg/kg BIDx1, 48 h): 7.35 fold or %; Gadd45a fold increase or percent reduction vs vehicle control (150 mg/kg BIDx1, 48 h): 42.12 fold or %; Hif1a fold increase or percent reduction vs vehicle control (150 mg/kg BIDx1, 48 h): 2.87 fold or %; Il6 fold increase or percent reduction vs vehicle control (150 mg/kg BIDx1, 48 h): 79.27 fold or %; Jun fold increase or percent reduction vs vehicle control (150 mg/kg BIDx1, 48 h): 47.43 fold or %; Kras fold increase or percent reduction vs vehicle control (150 mg/kg BIDx1, 48 h): 1.18 fold or %; Lig4 fold increase or percent reduction vs vehicle control (150 mg/kg BIDx1, 48 h): 1.12 fold or %; Mdm2 fold increase or percent reduction vs vehicle control (150 mg/kg BIDx1, 48 h): 1.03 fold or %; Mdm4 fold increase or percent reduction vs vehicle control (150 mg/kg BIDx1, 48 h): 1.28 fold or %; Mel1 fold increase or percent reduction vs vehicle control (150 mg/kg BIDx1, 48 h): 6.76 fold or %; Mlh1 fold increase or percent reduction vs vehicle control (150 mg/kg BIDx1, 48 h): 19.02 fold or %; Msh2 fold increase or percent reduction vs vehicle control (150 mg/kg BIDx1, 48 h): 29.32 fold or %; Myod1 fold increase or percent reduction vs vehicle control (150 mg/kg BIDx1, 48 h): 1.51 fold or %; Nf1 fold increase or percent reduction vs vehicle control (150 mg/kg BIDx1, 48 h): 9.92 fold or %; Nfkb1 fold increase or percent reduction vs vehicle control (150 mg/kg BIDx1, 48 h): 4.37 fold or %; Pcna fold increase or percent reduction vs vehicle control (150 mg/kg BIDx1, 48 h): 58.04 fold or %; Pmaip1 fold increase or percent reduction vs vehicle control (150 mg/kg BIDx1, 48 h): 1.17 fold or %; Ppm1d fold increase or percent reduction vs vehicle control (150 mg/kg BIDx1, 48 h): 2.87 fold or %; Prc1 fold increase or percent reduction vs vehicle control (150 mg/kg BIDx1, 48 h): 59.70 fold or %; Prkca fold increase or percent reduction vs vehicle control (150 mg/kg BIDx1, 48 h): 22.18 fold or %; Pten fold increase or percent reduction vs vehicle control (150 mg/kg BIDx1, 48 h): 1.08 fold or %; Pttg1 fold increase or percent reduction vs vehicle control (150 mg/kg BIDx1, 48 h): 0.69 fold or %; Rb1 fold increase or percent reduction vs vehicle control (150 mg/kg BIDx1, 48 h): 1.43 fold or %; Rela fold increase or percent reduction vs vehicle control (150 mg/kg BIDx1, 48 h): 9.46 fold or %; Rprm fold increase or percent reduction vs vehicle control (150 mg/kg BIDx1, 48 h): 1.00 fold or %; Serpinb5 fold increase or percent reduction vs vehicle control (150 mg/kg BIDx1, 48 h): 3.17 fold or %; Sesn2 fold increase or percent reduction vs vehicle control (150 mg/kg BIDx1, 48 h): 1.21 fold or %; Sfn fold increase or percent reduction vs vehicle control (150 mg/kg BIDx1, 48 h): 13.65 fold or %
